# Patent US10336768B2, “Pyrimidine compounds and methods using the same” (Yuma Therapeutics, Inc., priority 2014, dated 2019)
# Values joined by “and” are separate entries in the source; they are usually repeats but may differ in a detail not shown here. Equal entries are not always repeated. Where two headings read alike, the source gives them in different places. Marks after values point to notes of the source that are not given here.
# Legend:
# [1] = Mouse liver microsomal stability; assay type: in vitro ADME; settings: mouse liver microsomes; read-out: microsomal stability T1/2
# Procedure: Metabolic stability of the compounds of the invention was assessed by monitoring their degradation in mouse liver microsomes.
# [2] = Mouse pharmacokinetics, plasma levels (LC-MS/MS); assay type: in vivo; settings: for AUC(0-t): read-out: AUC(0-8 h); for half-life: read-out: Half life (t1/2) (converted)
# Procedure: Plasma and brain samples were taken pre-dose and at post dose time points of pre-dose, 15 and 30 minutes, 1, 2, and 8 hours. The pre-dose group was represented by 5 animals, whereas the post-dose groups were represented by 3 animals.
# Bioanalysis of mouse plasma samples for compound 20 was conducted by protein precipitation and LC-MS/MS with compound 22 as the internal standard. The method was based on a ‘generic assay’ and some method development was conducted to tailor that assay to the particular compound and internal standard. The eventual non-GLP assay was first tested by analyzing a bioanalytical run with spiked mouse plasma samples. The qualification run passed by the run acceptance criteria (see below). Bioanalysis was then conducted of plasma sample extracts and of brain sample homogenate extracts, using a calibration and quality control samples spiked in mouse plasma. The assay is described below.
# Compound 20 and compound 22 were extracted from the mouse plasma matrix by protein precipitation. To 20.0 μL of sample was added 10.0 μL of internal standard working solution (1000 ng/mL in MeOH) and 200 μL of MeCN. The mixture was vortexed (5 sec) and centrifuged (14000 rpm, 5 min). The supernatant was then recovered and evaporated to dryness. The residue was redissolved in 100 μL of redissolving solution (80:20 v:v of mobile phases A:B). For analysis, 20.0 μL was injected in to the LC-MS/MS system.
# All chromatography was done with a type 1100 liquid chromatograph (Agilent), equipped with an auto-injector. The analytical column was an Xbridge C18 3.5 μm 2.1×50 mm (Waters), employed at 50° C. The mobile phase was a gradient, composed of solvent A:1 g/L ammonium acetate in Milli-Q water, and solvent B: MeCN.
# All experiments were done on an API 3000 triple quadrupole instrument (AB Sciex), operated in positive turbo-ionspray mode (‘TIS+’). The instrument parameters had been optimized during method development.
# […] Two sets of calibration samples were used, one set placed before and the other placed after the study samples. In addition, QC samples at 5 levels (two samples at each level) were included in the run, as performance indicators and for run acceptance.
# Evaluation of pharmacokinetic parameters was conducted by calculation from the mean concentration (n=5 pre-dose, n=3 post-dose) at each time point.
# [3] = Solubility in pH 7.4 buffer; assay type: physicochemical; settings: pH 7.4, aqueous buffer, pH of 7.4
# Procedure: Compound solubility was determined in pH 7.4 buffer. Aqueous solubility of greater than or equal to about 0.5 μM (e.g., greater than or equal to about 1 μM, greater than or equal to about 2 μM, greater than or equal to about 5 μM, greater than or equal to about 10 μM, greater than or equal to about 20 μM, or greater than or equal to about 30 μM) may indicate a compound having acceptable solubility for medical use, e.g., for treatment of a neurodegenerative disorder.
# SH-SY5Y-hTAU441 cells = test: Cytotoxicity assay (MTT); assay type: cell-based; settings: FIG. 6A
# Procedure: SH-SY5Y-hTAU441 cell viability was determined using the MTT assay. […] SH-SY5Y cell viability may also be measured after 24 and 48 h with the CellTiter-Glo® assay that measures ATP-levels. In addition, cytotoxicity may be assessed using the Celigo® with live cell microscopic imaging and a GE InCell Analyzer 2000 to measure multiple outcomes including apoptosis markers, membrane permeability, and mitochondrial activity.
# Hsp70 = test: Hsp90 cell based functional assay (Western blot for Hsp70, Hsp90)
# Procedure: Cells were treated with compounds of the invention for 24 h and then lysed in a buffer containing NP-40, orthovanadate, and protease inhibitors. Western blots were performed with antibodies specific to Hsp70, Hsp90, or actin (as control).
# His-tagged-Hsp90 = test system: T1, His-tagged-Hsp90; test: Hsp90 biochemical assay (AlphaLISA); assay type: binding
# T1 construct: fused on or other part: His tag (captured on Ni2+-coated beads)
# Procedure: This assay employs biotinylated geldanamycin, His-tagged-Hsp90, and Ni^+2 coated beads. This assay is homogenous and miniaturized to 384-well plates. Measurement of binding activity was performed on an Envision reader. […] This assay is the primary assay for evaluating compounds of the invention.
# P-gp (MDR1) = test: MDR1-MDCK permeability assay; assay type: in vitro ADME; settings: dog, read-out: B→A/A→B asymmetry
# Description: (§1) Compounds may be assessed in MDR1-MDCK permeability assay or Caco-2 permeability assay to determine their permeability. Apical (A) to basal (B) permeability >3×10^−6 cm/sec and B→A/A→B asymmetry <3 for a compound are considered acceptable predictors of brain penetration, and compounds having such properties are unlikely to be P-glycoprotein (P-gp) substrates. Compound 20 has shown excellent permeability in MDR1-MDCK assay (A-B=28×10^−6 cm/s) with low asymmetry (B→A/A→B asymmetry=0.9).
# [4] = test system: P-glycoprotein (P-gp, MDR1); test: MDR1-MDCK permeability assay; assay type: in vitro ADME; settings: dog, apical to basal
# Description: as §1
# [5] = mouse, plasma, Table 11, footnote: excluding IRN12 result
# [6] = mouse, plasma, Table 12, footnote: including IRN12 result
compound,measurement,setting,value
"Nc1nc(-c2c(Cl)cc(Cl)c3c2CCO3)c2[nH]ccc2n1 [compound 20, 4-(5,7-Dichloro-2,3-dihydrobenzofuran-4-yl)-5H-pyrrolo[3,2-d]pyrimidin-2-amine]",half-life,[1],26 min
same,"Mean Group Concentration, plasma",[2]; 0.25 h,^a Excluding IRN 12 result: 14950 ng/mL
same,"Plasma concentration, individual animals","[2]; 15 minutes post dose (B_0.25), values above 8000 ng/mL out of range, indicative","17,900 ^b ng/mL and 12,000 ^b ng/mL"
same,"Plasma concentration, individual animals","[2]; 30 minutes post dose (C_0.5), out of range (>8000 ng/mL), indicative","11,500 ^b ng/mL and 10,500 ^b ng/mL and 11,100 ^b ng/mL"
same,"Plasma concentration, individual animals",[2]; 1 hour post dose (D_1),"7,130 ng/mL and 7,470 ng/mL"
same,"Plasma concentration, individual animals",[2]; 2 hours post dose (E_2),"4,180 ng/mL and 4,440 ng/mL"
same,"Plasma concentration, individual animals",[2]; 8 hours post dose (F_8),99.3 ng/mL and 22.5 ng/mL and 21.9 ng/mL
same,Kelimination,"[2]; Table 11, footnote: excluding IRN12 result",0.725 per hour (h^−1)
same,Kelimination,"[2]; Table 12, footnote: including IRN12 result",0.730 per hour (h^−1)
same,concentration at 0.25 h,"[2]; mouse, plasma, 0.25 h, n=3 incl. IRN 12, read-out: Mean Group Concentration, plasma",9970 ng/mL
same,concentration at 15 min,"[2]; mouse, plasma, 15 minutes post dose (B_0.25), values above 8000 ng/mL out of range, indicative, read-out: Plasma concentration, individual animals",2.66 ng/mL
same,concentration at 0.5 h,"[2]; mouse, plasma, 0.50 h, read-out: Mean Group Concentration, plasma",11000 ng/mL
same,concentration at 1 h,"[2]; mouse, plasma, 1.00 h, read-out: Mean Group Concentration, plasma",7160 ng/mL
same,concentration at 1 h,"[2]; mouse, plasma, 1 hour post dose (D_1), read-out: Plasma concentration, individual animals",6890 ng/mL
same,concentration at 2 h,"[2]; mouse, plasma, 2.00 h, read-out: Mean Group Concentration, plasma",4260 ng/mL
same,concentration at 2 h,"[2]; mouse, plasma, 2 hours post dose (E_2), read-out: Plasma concentration, individual animals",4150 ng/mL
same,concentration at 8 h,"[2]; mouse, plasma, 8.00 h, read-out: Mean Group Concentration, plasma",47.9 ng/mL
same,AUC(0-inf),[2]; [5],27100 ng·h/mL
same,Cmax,[2]; [5],11000 ng/mL
same,Tmax,[2]; [5],30 min
same,AUC(0-t),[2]; [5],27000 ng·h/mL
same,half-life,[2]; [5],57.6 min
same,AUC(0-inf),[2]; [6],28300 ng·h/mL
same,Cmax,[2]; [6],15000 ng/mL
same,Tmax,[2]; [6],15 min
same,AUC(0-t),[2]; [6],28300 ng·h/mL
same,half-life,[2]; [6],57 min
same,solubility,[3],30 µM
same,cell viability,SH-SY5Y-hTAU441 cells,did not affect cell viability
same,expression of Hsp70,"Hsp70; Western blot, FIG. 5B",increase in the expression of Hsp70
same,expression of Hsp90,"Hsp70; Western blot, FIG. 5B, relative to variation in concentration",expression of Hsp90 remains unchanged
same,EC50,Hsp70; read-out: Hsp 70 agonist activity,> 10000 nM
same,IC50,"His-tagged-Hsp90; AlphaLISA, FIG. 5A, read-out: Hsp90 inhibitory activity IC50",740 ± 100 nM
same,IC50,"His-tagged-Hsp90; IC50 class, AlphaLISA (primary assay), read-out: Hsp90 inhibitory activity",< 1000 nM
same,efflux ratio,P-gp (MDR1),0.9
same,Papp A→B,[4],28 ×10⁻⁶ cm/s
